Measurements: PMC12298351, “Novel 3,19-(N-Phenyl-3-(4-fluorophenyl)-pyrazole) Acetal of Andrographolide Promotes Cell Cycle Arrest and Apoptosis in MDA-MB-231 Breast Cancer Cells” (Pharmaceuticals, 2025)

Experiments:
OVCAR-5 = conditions: OVCAR-5, Ovarian
SK-OV-3 = conditions: SK-OV-3, Ovarian
UACC-62 = conditions: UACC-62, Melanoma
MDA-MB-435 = conditions: MDA-MB-435, Melanoma
UACC-257 = conditions: UACC-257, Melanoma
OVCAR-4 = assay type: cell-based; conditions: OVCAR-4, Ovarian
IGROV1 = conditions: IGROV1, Ovarian
HCT-15 = conditions: HCT-15, Colon
A498 = conditions: A498, Renal
BT-549 = assay type: cell-based; conditions: BT-549, Breast
NCI/ADR-RES = conditions: Ovarian
DU-145 = conditions: DU-145, Prostate
HCC-2998 = conditions: HCC-2998, Colon
CAKI-1 = conditions: CAKI-1, Renal
MDA-MB-468 = conditions: MDA-MB-468, Breast
OVCAR-3 = conditions: OVCAR-3, Ovarian
HT29 = conditions: HT29, Colon
SK-MEL-2 = conditions: SK-MEL-2, Melanoma
RXF 393 = conditions: RXF 393, Renal
[1] = read-out: 50% lethal concentration (LC50)
[2] = read-out: 50% lethal concentration (LC50), Leukemia
[3] = read-out: 50% lethal concentration (LC50), Non-Small Cell Lung

**Q.** Which Total growth inhibition (TGI) (HOP-62; HOP-62, Non-Small Cell Lung) does the source give for C=C1CCC2C3(C)COC(c4cn(-c5ccccc5)nc4-c4ccccc4)OC3CCC2(C)C1CC=C1C(=O)OCC1O (stereo not shown) [1a] here?
**A.** 3.84 µM

**Q.** What about the GI50 (HOP-62; HOP-62, Non-Small-Cell Lung) of the same molecule?
**A.** 1.87 µM

**Q.** What about the CC50 (HOP-62; read-out: 50% lethal concentration (LC50), HOP-62, Non-Small Cell Lung) of the same molecule?
**A.** 7.89 µM

**Q.** And the GI50 (OVCAR-5)?
**A.** 1.86 µM

**Q.** What about the CC50 (OVCAR-5; [1]) of the same molecule?
**A.** 8.71 µM

**Q.** What about the GI50 (HS 578T; Breast) of the same molecule?
**A.** 2.31 µM

**Q.** And the Total growth inhibition (TGI) (HS 578T; Breast)?
**A.** 6.54 µM

**Q.** And the CC50 (HS 578T; read-out: 50% lethal concentration (LC50), Breast)?
**A.** > 100 µM

**Q.** What about the GI50 (SK-OV-3) of the same molecule?
**A.** 1.77 µM

**Q.** What about the Total growth inhibition (TGI) (SK-OV-3) of the same molecule?
**A.** 18.7 µM

**Q.** And the CC50 (SK-OV-3; [1])?
**A.** 91.1 µM

**Q.** What about the GI50 (UACC-62) of the same molecule?
**A.** 1.65 µM

**Q.** And the Total growth inhibition (TGI) (UACC-62)?
**A.** 3.2 µM

**Q.** What about the CC50 (UACC-62; [1]) of the same molecule?
**A.** 6.22 µM

**Q.** What about the GI50 (SR; Leukemia) of the same molecule?
**A.** 3.79 µM

**Q.** And the Total growth inhibition (TGI) (SR; Leukemia)?
**A.** > 100 µM

**Q.** What about the CC50 (SR; [2]) of the same molecule?
**A.** > 100 µM

**Q.** And the GI50 (MDA-MB-435)?
**A.** 1.86 µM

**Q.** What about the Total growth inhibition (TGI) (MDA-MB-435) of the same molecule?
**A.** 4.19 µM

**Q.** What about the CC50 (MDA-MB-435; [1]) of the same molecule?
**A.** 9.43 µM

**Q.** What about the GI50 (UACC-257) of the same molecule?
**A.** 1.9 µM

**Q.** What about the Total growth inhibition (TGI) (UACC-257) of the same molecule?
**A.** 3.8 µM

**Q.** What about the CC50 (UACC-257; [1]) of the same molecule?
**A.** 7.62 µM

**Q.** What about the Total growth inhibition (TGI) (NCI-H23; NCI-H23, Non-Small Cell Lung) of the same molecule?
**A.** 3.08 µM

**Q.** What about the GI50 (NCI-H23; NCI-H23, Non-Small-Cell Lung) of the same molecule?
**A.** 1.69 µM

**Q.** What about the CC50 (NCI-H23; read-out: 50% lethal concentration (LC50), NCI-H23, Non-Small Cell Lung) of the same molecule?
**A.** 5.64 µM

**Q.** What about the GI50 (CCRF-CEM; Leukemia) of the same molecule?
**A.** 0.59 µM

**Q.** What about the Total growth inhibition (TGI) (CCRF-CEM; Leukemia) of the same molecule?
**A.** 3.37 µM

**Q.** And the CC50 (CCRF-CEM; [2])?
**A.** > 100 µM

**Q.** And the Total growth inhibition (TGI) (HOP-92; HOP-92, Non-Small Cell Lung)?
**A.** 2.99 µM

**Q.** And the GI50 (HOP-92; HOP-92, Non-Small-Cell Lung)?
**A.** 1.53 µM

**Q.** And the CC50 (HOP-92; read-out: 50% lethal concentration (LC50), HOP-92, Non-Small Cell Lung)?
**A.** 5.83 µM

**Q.** What about the GI50 (OVCAR-4) of the same molecule?
**A.** 2.31 µM

**Q.** What about the CC50 (OVCAR-4; [1]) of the same molecule?
**A.** > 100 µM

**Q.** What about the GI50 (IGROV1) of the same molecule?
**A.** 1.77 µM

**Q.** And the Total growth inhibition (TGI) (IGROV1)?
**A.** 3.44 µM

**Q.** And the CC50 (IGROV1; [1])?
**A.** 6.66 µM

**Q.** And the Total growth inhibition (TGI) (NCI-H226; NCI-H226, Non-Small Cell Lung)?
**A.** 4.31 µM

**Q.** And the GI50 (NCI-H226; NCI-H226, Non-Small-Cell Lung)?
**A.** 1.95 µM

**Q.** And the CC50 (NCI-H226; read-out: 50% lethal concentration (LC50), NCI-H226, Non-Small Cell Lung)?
**A.** 9.55 µM

**Q.** And the GI50 (LOX IMVI; Melanoma)?
**A.** 1.54 µM

**Q.** And the Total growth inhibition (TGI) (LOX IMVI; Melanoma)?
**A.** 3 µM

**Q.** And the CC50 (LOX IMVI; read-out: 50% lethal concentration (LC50), Melanoma)?
**A.** 5.85 µM

**Q.** What about the Total growth inhibition (TGI) (A549/ATCC; Non-Small Cell Lung) of the same molecule?
**A.** 7.11 µM

**Q.** What about the GI50 (A549/ATCC; Non-Small-Cell Lung) of the same molecule?
**A.** 2.49 µM

**Q.** And the CC50 (A549/ATCC; [3])?
**A.** > 100 µM

**Q.** And the GI50 (HCT-15)?
**A.** 1.72 µM

**Q.** And the Total growth inhibition (TGI) (HCT-15)?
**A.** 3.45 µM

**Q.** What about the CC50 (HCT-15; [1]) of the same molecule?
**A.** 6.91 µM

**Q.** What about the GI50 (A498) of the same molecule?
**A.** 2.34 µM

**Q.** What about the Total growth inhibition (TGI) (A498) of the same molecule?
**A.** 6.47 µM

**Q.** And the CC50 (A498; [1])?
**A.** 27.7 µM

**Q.** What about the GI50 (BT-549) of the same molecule?
**A.** 1.64 µM

**Q.** What about the Total growth inhibition (TGI) (BT-549) of the same molecule?
**A.** 3.16 µM

**Q.** And the CC50 (BT-549; [1])?
**A.** 6.1 µM

**Q.** And the GI50 (NCI/ADR-RES)?
**A.** 4.75 µM

**Q.** What about the Total growth inhibition (TGI) (NCI/ADR-RES) of the same molecule?
**A.** 5.31 µM

**Q.** What about the Total growth inhibition (TGI) (EKVX; Non-Small Cell Lung) of the same molecule?
**A.** 4.66 µM

**Q.** What about the GI50 (EKVX; Non-Small-Cell Lung) of the same molecule?
**A.** 2.07 µM

**Q.** And the CC50 (EKVX; [3])?
**A.** > 100 µM

**Q.** What about the GI50 (DU-145) of the same molecule?
**A.** 2.05 µM

**Q.** What about the Total growth inhibition (TGI) (DU-145) of the same molecule?
**A.** 4.16 µM

**Q.** What about the Total growth inhibition (TGI) (NCI-H522; NCI-H522, Non-Small Cell Lung) of the same molecule?
**A.** 3.86 µM

**Q.** What about the GI50 (NCI-H522; NCI-H522, Non-Small-Cell Lung) of the same molecule?
**A.** 1.9 µM

**Q.** What about the CC50 (NCI-H522; read-out: 50% lethal concentration (LC50), NCI-H522, Non-Small Cell Lung) of the same molecule?
**A.** 7.85 µM

**Q.** What about the GI50 (HCC-2998) of the same molecule?
**A.** 1.68 µM

**Q.** What about the Total growth inhibition (TGI) (HCC-2998) of the same molecule?
**A.** 3.11 µM

**Q.** And the CC50 (HCC-2998; [1])?
**A.** 5.76 µM

**Q.** And the GI50 (CAKI-1)?
**A.** 1.86 µM

**Q.** And the Total growth inhibition (TGI) (CAKI-1)?
**A.** 4.81 µM

**Q.** What about the Total growth inhibition (TGI) (NCI-H460; NCI-H460, Non-Small Cell Lung) of the same molecule?
**A.** 3.35 µM

**Q.** What about the GI50 (NCI-H460; NCI-H460, Non-Small-Cell Lung) of the same molecule?
**A.** 1.66 µM

**Q.** What about the CC50 (NCI-H460; read-out: 50% lethal concentration (LC50), NCI-H460, Non-Small Cell Lung) of the same molecule?
**A.** 6.74 µM

**Q.** And the GI50 (MDA-MB-468)?
**A.** 1.69 µM

**Q.** What about the Total growth inhibition (TGI) (MDA-MB-468) of the same molecule?
**A.** 3.34 µM

**Q.** And the CC50 (MDA-MB-468; [1])?
**A.** 6.58 µM

**Q.** What about the GI50 (OVCAR-3) of the same molecule?
**A.** 1.82 µM

**Q.** And the Total growth inhibition (TGI) (OVCAR-3)?
**A.** 3.35 µM

**Q.** What about the CC50 (OVCAR-3; [1]) of the same molecule?
**A.** 6.16 µM

**Q.** And the GI50 (HT29)?
**A.** 2.37 µM

**Q.** What about the Total growth inhibition (TGI) (HT29) of the same molecule?
**A.** 6.77 µM

**Q.** What about the CC50 (HT29; [1]) of the same molecule?
**A.** > 100 µM

**Q.** What about the GI50 (SK-MEL-2) of the same molecule?
**A.** 1.74 µM

**Q.** What about the Total growth inhibition (TGI) (SK-MEL-2) of the same molecule?
**A.** 3.54 µM

**Q.** What about the CC50 (SK-MEL-2; [1]) of the same molecule?
**A.** 7.2 µM

**Q.** And the GI50 (RXF 393)?
**A.** 1.4 µM

**Q.** What about the Total growth inhibition (TGI) (RXF 393) of the same molecule?
**A.** 2.84 µM

**Q.** And the CC50 (RXF 393; [1])?
**A.** 5.76 µM
